Assays:
AXL = biological target: T1, AXL (Homo sapiens, UniProt P30530); experiment: Assay of AXL inhibitory activity in vitro (Promega AXL Kinase Enzyme System, ADP-Glo); format: biochemical; conditions: 50 μmol/L ATP, 30° C., 60 minutes
T1 construct: purchased Promega
T1 sequence (P30530 26-894): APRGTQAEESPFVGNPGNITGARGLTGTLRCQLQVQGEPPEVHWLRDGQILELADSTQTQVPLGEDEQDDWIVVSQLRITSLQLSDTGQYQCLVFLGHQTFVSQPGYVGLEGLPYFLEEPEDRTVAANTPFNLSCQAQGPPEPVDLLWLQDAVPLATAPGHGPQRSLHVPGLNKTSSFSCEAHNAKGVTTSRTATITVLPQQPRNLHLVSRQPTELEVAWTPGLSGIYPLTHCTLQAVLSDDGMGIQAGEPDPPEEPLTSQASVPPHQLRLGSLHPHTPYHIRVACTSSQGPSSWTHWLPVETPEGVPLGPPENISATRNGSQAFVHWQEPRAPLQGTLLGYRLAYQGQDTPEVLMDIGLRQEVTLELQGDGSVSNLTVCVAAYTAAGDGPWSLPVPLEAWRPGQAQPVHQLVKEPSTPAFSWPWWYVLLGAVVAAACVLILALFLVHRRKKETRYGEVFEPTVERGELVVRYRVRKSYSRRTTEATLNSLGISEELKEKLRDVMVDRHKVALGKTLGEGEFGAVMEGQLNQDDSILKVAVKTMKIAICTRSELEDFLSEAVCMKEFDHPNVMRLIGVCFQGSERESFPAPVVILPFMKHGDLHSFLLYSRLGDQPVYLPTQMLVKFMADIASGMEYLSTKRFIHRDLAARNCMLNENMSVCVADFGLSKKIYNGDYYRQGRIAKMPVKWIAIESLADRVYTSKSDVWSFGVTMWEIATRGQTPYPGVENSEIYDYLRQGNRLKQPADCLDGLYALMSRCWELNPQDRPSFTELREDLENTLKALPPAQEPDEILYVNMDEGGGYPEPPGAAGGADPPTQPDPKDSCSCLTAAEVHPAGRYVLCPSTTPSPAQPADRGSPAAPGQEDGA
Method: AXL Kinase Enzyme System (kinase system) was purchased from Promega. Envision multi-label Analyzer (PerkinElmer).
The enzyme, substrate, ATP and inhibitors were diluted using the buffer solution in the kit.
The assay was carried out in duplicate. 1 μl of the inhibitors of each concentration gradient, 2 μl of the AXL enzyme (6 ng), and a 2 μl mixture of the substrate and ATP (50 μmol/L ATP, 0.2 μg/μL Axltide) were added to the microplate. […] After the reaction was completed, 5 μL of ADP-Glo reagent was added to each well. The system was further reacted at 30° C. for 40 minutes. After the reaction was completed, 10 μL of kinase detection reagent was added to each well and reacted at 30° C. for 30 minutes. The chemiluminescence was then read by the PerkinElmer Envision multi-label analyzer with an integration time of 0.5 seconds.
(§1) The original data was converted into an inhibition rate, and the IC50 value can be obtained by four-parameter curve fitting.

[1] = In vivo pharmacokinetic assay in rats; parameters: species or system SD male rats
Method: SD male rats aged 7 to 10 weeks were selected. The rats were fasted for at least 12 hours before the administration, and resumed feeding 4 hours after the administration. The rats had free access to water throughout the assay period.
On the day of the assay, the animals in the intravenous group were administrated the corresponding compound through a single injection in the tail vein at an administration volume of 5 mL/kg; the oral group were administrated the corresponding compound through a single intragastric gavage at an administration volume of 10 mL/kg. The animals were weighed before administration, and the administration volume was calculated based on the body weight. The time for collecting samples was: 0.083 (the injection group), 0.25, 0.5, 1, 2, 4, 6, 8, 24 h. About 200 μL of whole blood was collected from the jugular vein at each time point to prepare plasma for concentration determination by high-performance liquid chromatography-tandem mass spectrometry (LC-MS/MS). All animals were euthanized by CO2 anesthesia after collecting the PK samples at the last time point. The plasma concentrations were processed by non-compartmental model of WinNonlin™ Version 6.3 (Pharsight, Mountain View, Calif.) pharmacokinetic software, and the pharmacokinetic parameters were calculated by the linear logarithm trapezoidal method.

MV-4-11 cells = experiment: Assay of inhibiting proliferation of MV-4-11 in vitro (CellTiter-Glo, 3 days); format: cell-based, human; conditions: MV-4-11 cell proliferation
Method: IMDM medium, fetal bovine serum, and penicillin/streptomycin antibiotics were purchased from Promega (Madison, Wis.). The MV-4-11 cell line was purchased from the Cell Bank of the Chinese Academy of Sciences. Envision Multi-Label Analyzer (PerkinElmer).
MV-4-11 cells were seeded in a white 96-well plate with 80 μL of cell suspension per well containing 10,000 MV-4-11 cells. The cell plate was cultured overnight in a carbon dioxide incubator.
The compounds to be tested were 5-fold serially diluted with a pipette to obtain eight concentrations, i.e., from 2 mmol/L to 26 nmol/L. The assay was carried out in duplicate. 78 μL of medium was added to the intermediate plate, and then 2 μL per well of the serially diluted compounds were transferred to the intermediate plate according to the corresponding position. After mixing, an amount of 20 μL per well was transferred to the cell plate. The cell plate was cultured in a carbon dioxide incubator for 3 days.
25 μL per well of Promega CellTiter-Glo reagent was added to the cell plate and incubated at room temperature for 10 minutes to stabilize the luminescence signal. A PerkinElmer Envision multi-label analyzer was used for reading.
as §1

In the case of CCc1nc(C(N)=O)c(Nc2ccc(N3CCC4(CCN(C)CC4)CC3)c(C)c2)nc1NC1CCOCC1.O=C(O)C(F)(F)F, the IC50 (AXL) is reported as 1.22 nM, the AUC0-last ([1]; Injection, 1 mg/kg) is reported as 457 nm·h and the Cl ([1]; Injection, 1 mg/kg) is reported as 61.2 mL/min/kg. For the same compound, the T1/2 ([1]; Injection, 1 mg/kg) was 2.99 h, the Vdss ([1]; Injection, 1 mg/kg) was 13.3 L/kg and the Cmax ([1]; Oral, 2.5 mg/kg) was 40.6 nM. It also gave a F% ([1]; Oral, 2.5 mg/kg) of 44.7%, a Tmax ([1]; Oral, 2.5 mg/kg) of 8.00 h and an IC50 (MV-4-11 cells) of 3.02 nM.

From patent publication US20230141887A1, “CRYSTAL FORM OF DIAZASPIROPYRAN COMPOUND” (MEDSHINE DISCOVERY INC., priority 2020, published 2023)
